From patent US12180207B2 (ARRAY BIOPHARMA INC., priority 2018, dated 2024)

Legend:
[1] = biological target: T1, HEK-293 cells transfected with dox-inducible human wild type FGFR3 (Homo sapiens (Human), UniProt P22607); experiment: FGFR3 pERK cell assay; format: cell-based; details: HEK-293 dox-inducible FGFR3, 1 hour compound, 100 ng/ml FGF-acidic; maximum concentration 5 μM
How it was run: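 Doxycycline-induced cells preincubated 1 h at 37 °C with compound (1:3 dilutions, top 5 μM final), then stimulated 5 min with 100 ng/ml FGF-acidic. Lysate phospho-ERK1/2 measured by MSD sandwich assay; IC50 at 50 POC from 4-parameter fit, normalised to no-compound and control-compound wells.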

[2] = biological target: FGFR1 (SEQ ID NO: 1, amino acids 458-765) (Homo sapiens (Human), UniProt P11362); experiment: LC/MS FGFR1 kobs assay (covalent protein modification); format: binding; details: 500 nM FGFR1, 3 μM compound
Sequence of FGFR1 (SEQ ID NO: 1, amino acids 458-765) (P11362 458-765): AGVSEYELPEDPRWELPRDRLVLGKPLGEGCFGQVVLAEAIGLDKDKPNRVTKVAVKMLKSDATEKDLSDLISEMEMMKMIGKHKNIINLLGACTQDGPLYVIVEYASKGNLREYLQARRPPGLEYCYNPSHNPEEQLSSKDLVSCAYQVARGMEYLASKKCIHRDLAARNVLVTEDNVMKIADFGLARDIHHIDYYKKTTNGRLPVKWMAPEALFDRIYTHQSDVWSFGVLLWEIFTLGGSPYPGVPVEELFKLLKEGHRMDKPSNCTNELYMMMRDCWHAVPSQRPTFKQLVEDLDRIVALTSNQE
How it was run: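 Covalent labeling of FGFR1 kinase domain (aa 458-765) tracked over time by intact-protein LC/MS after formic acid quench. kobs derived by fitting DMSO-normalized percent unmodified FGFR1 to an exponential decay model.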

[3] = biological target: FGFR3 (SEQ ID NO: 5, amino acids 449-759) (Homo sapiens (Human), UniProt P22607); experiment: LC/MS FGFR3 kobs assay (covalent protein modification); format: binding; details: 500 nM FGFR3, 3 μM compound
Sequence of FGFR3 (SEQ ID NO: 5, amino acids 449-759) (P22607 449-759): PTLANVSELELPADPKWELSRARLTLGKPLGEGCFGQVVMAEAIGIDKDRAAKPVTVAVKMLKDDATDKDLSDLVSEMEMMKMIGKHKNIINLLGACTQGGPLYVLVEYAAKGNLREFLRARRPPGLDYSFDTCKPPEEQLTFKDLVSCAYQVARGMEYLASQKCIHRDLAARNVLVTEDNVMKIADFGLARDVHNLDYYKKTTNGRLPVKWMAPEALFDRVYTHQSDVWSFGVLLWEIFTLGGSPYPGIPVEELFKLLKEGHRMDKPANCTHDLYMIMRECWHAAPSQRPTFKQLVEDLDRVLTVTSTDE
How it was run: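 Intact-mass LC/MS tracks covalent labeling of the kinase domain over time after acid quench (0.4% formic acid). Unmodified fraction, scaled to DMSO controls, is fitted as exponential decay; kobs is reported, averaged when measured more than once.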

dephosphorylated FGFR2 = dephosphorylated FGFR2 (Homo sapiens (Human), UniProt P21802); experiment: FGFR enzyme binding assay (HTRF tracer displacement), FGFR2; details: 5 nM dephosphorylated FGFR2, average of multiple determinations if made
Sequence of dephosphorylated FGFR2 (P21802 22-821): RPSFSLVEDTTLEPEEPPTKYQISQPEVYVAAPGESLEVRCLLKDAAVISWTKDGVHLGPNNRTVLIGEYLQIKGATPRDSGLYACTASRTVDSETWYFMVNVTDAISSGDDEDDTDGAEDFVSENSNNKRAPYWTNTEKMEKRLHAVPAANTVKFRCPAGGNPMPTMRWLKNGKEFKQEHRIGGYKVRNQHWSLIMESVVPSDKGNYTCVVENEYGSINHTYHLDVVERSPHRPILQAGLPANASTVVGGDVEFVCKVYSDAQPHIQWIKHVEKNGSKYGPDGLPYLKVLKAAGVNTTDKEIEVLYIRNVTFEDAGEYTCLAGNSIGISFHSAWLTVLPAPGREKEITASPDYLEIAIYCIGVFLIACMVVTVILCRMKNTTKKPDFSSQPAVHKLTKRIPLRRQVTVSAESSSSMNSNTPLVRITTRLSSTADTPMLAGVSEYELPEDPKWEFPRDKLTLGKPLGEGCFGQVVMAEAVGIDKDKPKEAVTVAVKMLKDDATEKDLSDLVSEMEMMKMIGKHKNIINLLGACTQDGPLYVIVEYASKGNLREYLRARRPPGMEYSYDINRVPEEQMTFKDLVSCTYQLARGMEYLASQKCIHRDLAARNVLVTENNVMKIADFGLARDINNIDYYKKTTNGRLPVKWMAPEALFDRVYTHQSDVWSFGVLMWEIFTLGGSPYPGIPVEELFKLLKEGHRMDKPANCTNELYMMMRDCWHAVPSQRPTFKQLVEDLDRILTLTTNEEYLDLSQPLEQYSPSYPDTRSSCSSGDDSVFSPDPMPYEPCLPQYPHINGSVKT
How it was run: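 Compounds were tested for displacement of a tracer from human FGFR kinase in a time-resolved FRET binding format. After 60 minutes at 22° C, signal was read at two wavelengths and converted to percent of control, normalised between untreated wells and 1 μM reference inhibitor.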

[4] = biological target: HEK-293 cells transfected with dox-inducible human wild type FGFR1 (Homo sapiens (Human), UniProt P11362); experiment: FGFR1 pERK cell assay; format: cell-based; details: HEK-293 dox-inducible FGFR1, 1 hour compound, 100 ng/ml FGF-acidic; maximum concentration 5 μM
Sequence of HEK-293 cells transfected with dox-inducible human wild type FGFR1 (P11362 22-822): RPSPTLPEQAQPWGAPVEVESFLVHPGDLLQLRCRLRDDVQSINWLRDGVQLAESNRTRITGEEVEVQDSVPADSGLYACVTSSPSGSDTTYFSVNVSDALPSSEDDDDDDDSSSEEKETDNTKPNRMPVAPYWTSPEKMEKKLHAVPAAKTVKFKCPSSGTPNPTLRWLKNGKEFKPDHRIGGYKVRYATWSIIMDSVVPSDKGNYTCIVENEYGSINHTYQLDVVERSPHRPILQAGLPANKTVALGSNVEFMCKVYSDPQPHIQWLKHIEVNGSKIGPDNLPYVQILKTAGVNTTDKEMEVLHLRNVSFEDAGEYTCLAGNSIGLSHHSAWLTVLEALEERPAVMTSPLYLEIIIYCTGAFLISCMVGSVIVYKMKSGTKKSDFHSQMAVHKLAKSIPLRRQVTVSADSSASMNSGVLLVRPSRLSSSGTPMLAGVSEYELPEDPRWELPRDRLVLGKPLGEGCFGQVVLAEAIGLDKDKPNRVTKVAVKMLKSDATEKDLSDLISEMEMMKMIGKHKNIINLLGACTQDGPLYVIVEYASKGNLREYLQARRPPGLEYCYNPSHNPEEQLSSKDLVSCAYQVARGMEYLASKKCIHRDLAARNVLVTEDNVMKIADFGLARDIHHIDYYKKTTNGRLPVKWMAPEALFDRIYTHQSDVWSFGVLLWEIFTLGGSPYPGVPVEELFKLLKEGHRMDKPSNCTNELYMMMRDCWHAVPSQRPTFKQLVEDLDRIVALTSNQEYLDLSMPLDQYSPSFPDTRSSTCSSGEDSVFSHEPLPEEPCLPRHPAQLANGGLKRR
How it was run: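 In HEK-293 cells with dox-induced human wild-type FGFR1, compounds (1:3 dilutions, top 5 μM final) were applied 1 h at 37°C before 5 min stimulation with 100 ng/ml FGF-acidic. Phospho-ERK1/2 measured by MSD sandwich immunoassay; IC50 from 4-parameter fit of POC versus vehicle and control compound.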

[5] = biological target: T1, HEK-293 cells transfected with dox-inducible human wild type FGFR3; experiment: FGFR3 pFGFR cell assay (ELISA); format: cell-based; details: HEK-293 dox-inducible FGFR3, 1 hour compound, 100 ng/ml FGF-acidic
How it was run: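 Doxycycline-induced (1 μg/ml) HEK-293 cells expressing wild-type human FGFR3, treated 1 h with compound (1:3 series, top final 5 μM), then stimulated 5 min with 100 ng/ml FGF-acidic. Phospho-FGFR3 measured by ELISA (total FGFR3 capture, phosphotyrosine detection, OD 450 nm); IC50 from 4-parameter fit of POC values.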

T1 sequence (P22607 23-806): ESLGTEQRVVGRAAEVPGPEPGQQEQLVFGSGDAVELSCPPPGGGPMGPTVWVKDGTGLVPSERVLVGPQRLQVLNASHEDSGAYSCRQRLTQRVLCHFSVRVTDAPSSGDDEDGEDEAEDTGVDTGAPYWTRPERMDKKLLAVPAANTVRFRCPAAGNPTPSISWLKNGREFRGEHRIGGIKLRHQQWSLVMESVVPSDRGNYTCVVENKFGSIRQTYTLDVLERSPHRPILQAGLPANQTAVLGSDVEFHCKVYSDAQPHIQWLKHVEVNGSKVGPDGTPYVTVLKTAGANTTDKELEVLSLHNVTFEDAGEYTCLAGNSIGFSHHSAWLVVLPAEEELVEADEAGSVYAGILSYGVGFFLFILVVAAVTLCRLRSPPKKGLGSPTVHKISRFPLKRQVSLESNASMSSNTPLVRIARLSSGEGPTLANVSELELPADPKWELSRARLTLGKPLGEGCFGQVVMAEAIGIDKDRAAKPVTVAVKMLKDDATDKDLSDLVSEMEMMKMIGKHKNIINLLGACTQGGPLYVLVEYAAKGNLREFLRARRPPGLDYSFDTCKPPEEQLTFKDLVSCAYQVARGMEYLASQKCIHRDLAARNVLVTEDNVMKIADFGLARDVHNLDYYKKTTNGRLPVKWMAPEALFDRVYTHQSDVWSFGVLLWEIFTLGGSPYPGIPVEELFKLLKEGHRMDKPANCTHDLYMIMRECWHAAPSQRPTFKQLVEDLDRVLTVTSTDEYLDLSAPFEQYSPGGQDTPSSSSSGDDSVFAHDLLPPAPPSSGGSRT

Structure (SMILES): C=CC(=O)N1CC(F)(C(=O)N2CCC(n3cc(-c4cc(OC)c5c(C#N)cnn5c4)cn3)CC2)C1 [Example 37, 6-(1-(1-(1-acryloyl-3-fluoroazetidine-3-carbonyl)piperidin-4-yl)-1H-pyrazol-4-yl)-4-methoxypyrazolo[1,5-a]pyridine-3-carbonitrile]
- IC50 [1]: 8 nM
- FGFR1 Enz kobs [2]: 0.00447 min⁻¹
- FGFR3 Enz kobs [3]: 0.07092 min⁻¹
- IC50 (dephosphorylated FGFR2): 44 nM
- IC50 [4]: 59 nM
- IC50 [5]: 12 nM

Structure (SMILES): C=CC(=O)N1CC(C(=O)N2C3CCC2CN(c2ccc(-c4cc(OC)c5c(C#N)cnn5c4)cn2)C3)C1 [Example 50, 6-(6-(8-(1-acryloylazetidine-3-carbonyl)-3,8-diazabicyclo[3.2.1]octan-3-yl)pyridin-3-yl)-4-methoxypyrazolo[1,5-a]pyridine-3-carbonitrile]
- IC50 [1]: 25 nM
- FGFR1 Enz kobs [2]: 0.00381 min⁻¹
- FGFR3 Enz kobs [3]: 0.04375 min⁻¹
- IC50 (dephosphorylated FGFR2): 14 nM
- IC50 [4]: 103 nM

Structure (SMILES): C=CC(=O)N1CC(C(=O)N2CC3CCC(C2)N3c2ccc(-c3cc(OC)c4c(C#N)cnn4c3)cn2)C1 [Example 51, 6-(6-(3-(1-acryloylazetidine-3-carbonyl)-3,8-diazabicyclo[3.2.1]octan-8-yl)pyridin-3-yl)-4-methoxypyrazolo[1,5-a]pyridine-3-carbonitrile]
- IC50 [1]: 61 nM
- FGFR1 Enz kobs [2]: 0.00338 min⁻¹
- FGFR3 Enz kobs [3]: 0.01769 min⁻¹
- IC50 (dephosphorylated FGFR2): 38 nM
- IC50 [4]: 198 nM

Structure (SMILES): C=CC(=O)N1CC(C(=O)N2C3CC2CN(c2ccc(-c4cc(OC)c5c(C#N)cnn5c4)cn2)C3)C1 [Example 52, 6-(6-(6-(1-acryloylazetidine-3-carbonyl)-3,6-diazabicyclo[3.1.1]heptan-3-yl)pyridin-3-yl)-4-methoxypyrazolo[1,5-a]pyridine-3-carbonitrile]
- IC50 [1]: 262 nM
- FGFR1 Enz kobs [2]: 0.00086 min⁻¹
- FGFR3 Enz kobs [3]: 0.00929 min⁻¹
- IC50 (dephosphorylated FGFR2): 32 nM
- IC50 [4]: 759 nM

Structure (SMILES): C=CC(=O)N1CCC(C(=O)N2CCC(n3ncc(-c4cc(OC)c5c(C#N)cnn5c4)c3C)CC2)CC1 [Example 82, 6-(1-(1-(1-acryloylpiperidine-4-carbonyl)piperidin-4-yl)-5-methyl-1H-pyrazol-4-yl)-4-methoxypyrazolo[1,5-a]pyridine-3-carbonitrile]
- IC50 [1]: 853 nM
- FGFR1 Enz kobs [2]: 0.00034 min⁻¹
- FGFR3 Enz kobs [3]: 0.00319 min⁻¹
- IC50 [4]: 3360 nM
- IC50 [5]: 814 nM

Structure (SMILES): C=CC(=O)N1CC[C@@H](C(=O)N2CCC(n3ncc(-c4cc(OC)c5c(C#N)cnn5c4)c3C)CC2)C1 [Example 83, (R)-6-(1-(1-(1-acryloylpyrrolidine-3-carbonyl)piperidin-4-yl)-5-methyl-1H-pyrazol-4-yl)-4-methoxypyrazolo[1,5-a]pyridine-3-carbonitrile]
- IC50 [1]: 549 nM
- FGFR1 Enz kobs [2]: 0.00058 min⁻¹
- FGFR3 Enz kobs [3]: 0.00547 min⁻¹
- IC50 (dephosphorylated FGFR2): 17 nM
- IC50 [4]: ≥ 5000 nM
- IC50 [5]: 546 nM

Structure (SMILES): C=CC(=O)N1CC(C(=O)N2CCC(n3ncc(-c4cc(OC)c5c(C#N)cnn5c4)c3C)CC2)C1 [Example 84, 6-(1-(1-(1-acryloylazetidine-3-carbonyl)piperidin-4-yl)-5-methyl-1H-pyrazol-4-yl)-4-methoxypyrazolo[1,5-a]pyridine-3-carbonitrile]
- IC50 [1]: 108 nM
- FGFR1 Enz kobs [2]: 0.00183 min⁻¹
- FGFR3 Enz kobs [3]: 0.02394 min⁻¹
- IC50 (dephosphorylated FGFR2): 21 nM
- IC50 [4]: 2530 nM
- IC50 [5]: 77 nM

Structure (SMILES): C=CC(=O)N1CC(F)(C(=O)N2CCC(n3ncc(-c4cc(OC)c5c(C#N)cnn5c4)c3C)CC2)C1 [Example 85, 6-(1-(1-(1-acryloyl-3-fluoroazetidine-3-carbonyl)piperidin-4-yl)-5-methyl-1H-pyrazol-4-yl)-4-methoxypyrazolo[1,5-a]pyridine-3-carbonitrile]
- IC50 [1]: 19 nM
- FGFR1 Enz kobs [2]: 0.00492 min⁻¹
- FGFR3 Enz kobs [3]: 0.1061 min⁻¹
- IC50 (dephosphorylated FGFR2): 36 nM
- IC50 [4]: 462 nM
- IC50 [5]: 16 nM

Structure (SMILES): C=CC(=O)N1CC(C)(C(=O)N2CCC(n3ncc(-c4cc(OC)c5c(C#N)cnn5c4)c3C)CC2)C1 [Example 86, 6-(1-(1-(1-acryloyl-3-methylazetidine-3-carbonyl)piperidin-4-yl)-5-methyl-1H-pyrazol-4-yl)-4-methoxypyrazolo[1,5-a]pyridine-3-carbonitrile]
- IC50 [1]: 159 nM
- FGFR1 Enz kobs [2]: 0.00258 min⁻¹
- FGFR3 Enz kobs [3]: 0.02116 min⁻¹
- IC50 (dephosphorylated FGFR2): 12 nM
- IC50 [4]: 2370 nM

Structure (SMILES): C=CC(=O)N1CC(C(=O)N2CCC(n3ncc(-c4cc(OC)c5c(C#N)cnn5c4)c3C)CC2)C1(C)C (stereo not shown) [Example 87, 6-(1-(1-(1-acryloyl-2,2-dimethylazetidine-3-carbonyl)piperidin-4-yl)-5-methyl-1H-pyrazol-4-yl)-4-methoxypyrazolo[1,5-a]pyridine-3-carbonitrile]
- IC50 [1]: 520 nM
- FGFR1 Enz kobs [2]: 0.00052 min⁻¹
- FGFR3 Enz kobs [3]: 0.00502 min⁻¹
- IC50 (dephosphorylated FGFR2): 51 nM
- IC50 [4]: 2350 nM

Structure (SMILES): C=CC(=O)N1CC(OC)(C(=O)N2CCC(n3ncc(-c4cc(OC)c5c(C#N)cnn5c4)c3C)CC2)C1 [Example 88, 6-(1-(1-(1-acryloyl-3-methoxyazetidine-3-carbonyl)piperidin-4-yl)-5-methyl-1H-pyrazol-4-yl)-4-methoxypyrazolo[1,5-a]pyridine-3-carbonitrile]
- IC50 [1]: 34 nM
- FGFR1 Enz kobs [2]: 0.00646 min⁻¹
- FGFR3 Enz kobs [3]: 0.05581 min⁻¹
- IC50 (dephosphorylated FGFR2): 12 nM
- IC50 [4]: 605 nM

Structure (SMILES): C=CC(=O)N1CC(CN2CCC(n3ncc(-c4cc(OC)c5c(C#N)cnn5c4)c3C)CC2)C1 [Example 89, 6-(1-(1-((1-acryloylazetidin-3-yl)methyl)piperidin-4-yl)-5-methyl-1H-pyrazol-4-yl)-4-methoxypyrazolo[1,5-a]pyridine-3-carbonitrile]
- IC50 [1]: 22 nM
- FGFR1 Enz kobs [2]: 0.00364 min⁻¹
- FGFR3 Enz kobs [3]: 0.02499 min⁻¹
- IC50 (dephosphorylated FGFR2): 53 nM
- IC50 [4]: 541 nM

Structure (SMILES): C=CC(=O)N1CC(C)(CN2CCC(n3ncc(-c4cc(OC)c5c(C#N)cnn5c4)c3C)CC2)C1 [Example 90, 6-(1-(1-((1-acryloyl-3-methylazetidin-3-yl)methyl)piperidin-4-yl)-5-methyl-1H-pyrazol-4-yl)-4-methoxypyrazolo[1,5-a]pyridine-3-carbonitrile]
- IC50 [1]: 43 nM
- FGFR1 Enz kobs [2]: 0.00243 min⁻¹
- FGFR3 Enz kobs [3]: 0.01468 min⁻¹
- IC50 (dephosphorylated FGFR2): 54 nM
- IC50 [4]: 2240 nM

Structure (SMILES): C=CC(=O)N1CC(CN2CCC(n3ncc(-c4cc(OC)c5c(C#N)cnn5c4)c3C)CC2)(OC)C1 [Example 91, 6-(1-(1-((1-acryloyl-3-methoxyazetidin-3-yl)methyl)piperidin-4-yl)-5-methyl-1H-pyrazol-4-yl)-4-methoxypyrazolo[1,5-a]pyridine-3-carbonitrile]
- IC50 [1]: 15 nM
- FGFR1 Enz kobs [2]: 0.00431 min⁻¹
- FGFR3 Enz kobs [3]: 0.04322 min⁻¹
- IC50 (dephosphorylated FGFR2): 19 nM
- IC50 [4]: 341 nM

Structure (SMILES): C=CC(=O)N1CC(C(=O)N2CCC(n3cc(-c4cc(OC)c5c(C#N)cnn5c4)c(C)n3)CC2)C1 [Example 94, 6-(1-(1-(1-acryloylazetidine-3-carbonyl)piperidin-4-yl)-3-methyl-1H-pyrazol-4-yl)-4-methoxypyrazolo[1,5-a]pyridine-3-carbonitrile]
- IC50 [1]: 450 nM
- FGFR1 Enz kobs [2]: 0.00145 min⁻¹
- FGFR3 Enz kobs [3]: 0.01518 min⁻¹
- IC50 [4]: 4500 nM
- IC50 [5]: 336 nM
